{
  "source": "patent US10004722B2",
  "about": "“Method for treating hepatic encephalopathy or a disease associated with free radical mediate stress and oxidative stress with novel functionalized 1,3-benzene diols” (KANNALIFE SCIENCES, INC., priority 2014, dated 2018)",
  "key": {"hippocampal cultures [1]": {"system": "hippocampal cultures", "assay": "Neuroprotection from 30 mM ethanol plus 300 μM ammonium acetate, CFDA assay", "assay_type": "cell-based", "conditions": "Rattus norvegicus, read-out: NP from ethanol + AmAc CFDA EC50", "description": "(§1) Cell cultures: All compounds were screened with dissociated hippocampal cultures derived from embryonic day 18 rats as the primary test system. With this preparation, primary neurons were used to test for toxicity as well as neuroprotection in a highly relevant experimental system to hepatic encephalopathy (HE). In brief, hippocampal tissue was obtained commercially through Brain Bits (Springfield, Ill.) and cultures prepared as previously described (Brewer, 1995). The hippocampal neurons were platted at low density (10,000 cell/well) in a 96-well format and maintained in serum-free medium consisting of Neurobasal Medium supplemented with B27 and GlutaMAX (Gibco). Pre-coated poly-D-lysine coated plates will be used because of the adherence and survival of hippocampal neurons and glia on this matrix support.\n(§2) The central objective of all neuroprotective assays was their relevancy to oxidative stress related to HE and other or diseases associated with oxidative stress in general. These studies use phenotypic assays of neuroprotection because the molecular target(s) mediating the action of cannabidiol-like protecting substances is unknown. Both the amount of ethanol and ammonia used in the assays, as well as the time of treatment and duration of the experiment, were designed to be relevant to HE (Ong et al, 2003). […]"}, "[2]": {"assay": "Pharmacokinetic profile after an IV dose in CD1 mice", "assay_type": "in vivo", "experimental": "(§3) The pharmacokinetic profile of compounds of the disclosure are determined in CD1 mice by administering IV and PO doses of the compounds of the disclosure to the CD1 mice. Plasma samples are drawn at 0.083, 0.25, 0.5, 1.0, 2.0, 4.0, 8.0, and 24 hours to determine the plasma concentration of the compounds of the disclosure. Brain and CSF samples were collected at 0.25 hours, 2 hours, and 8 hours post dosing. IV doses were prepared as solutions in 5% Dimethylacetamide (DMAC), 5% Solutol HS 15 and 90% Saline at 0.4 mg/mL PO doses were prepared as solutions in 5% Dimethylacetamide (DMAC), 5% Solutol HS 15 and 90% Saline at 1 mg/mL. Experimental results for exemplary compounds of the disclosure are described in tables 6-9 and FIGS. 1 and 2."}, "in vivo": {"assay": "in vivo", "design": "species or system CD1 mice", "experimental": "as §3"}, "hippocampal cultures [3]": {"system": "hippocampal cultures", "assay": "Neuroprotection from 30 mM ethanol plus 300 μM ammonium acetate, propidium iodide (PI) assay", "assay_type": "cell-based", "conditions": "Rattus norvegicus, read-out: NP from ethanol + AmAc PI EC50", "description": "as §1, §2"}, "hippocampal cultures [4]": {"system": "hippocampal cultures", "assay": "cells", "assay_type": "cell-based", "conditions": "Rattus norvegicus, 30 mM ethanol, propidium iodide, read-out: NP from Ethanol PI EC50", "excerpt": "Cell cultures: All compounds were screened with dissociated hippocampal cultures derived from embryonic day 18 rats as the primary test system. With this preparation, primary neurons were used to test for toxicity as well as neuroprotection in a highly relevant experimental system to hepatic encephalopathy (HE). In brief, hippocampal tissue was obtained commercially through Brain Bits (Springfield, Ill.) and cultures prepared as previously described (Brewer, 1995). The hippocampal neurons were platted at low density (10,000 cell/well) in a 96-well format and maintained in serum-free medium consisting of Neurobasal Medium supplemented with B27 and GlutaMAX (Gibco). […]\nThese studies use phenotypic assays of neuroprotection because the molecular target(s) mediating the action of cannabidiol-like protecting substances is unknown. […] Further, all time parameters employed in these studies were empirically determined to be within the limits of reversible toxic events after treatment with cannabidiol (Hamelink et al., 2005) and cannabidiol-like substances, yet using amounts of ethanol (30 mM) and ammonia (300 μM ammonium acetate) that were relevant to the disease. […]\nCarboxyfluorescein (CFDA) was used a vital stain for all neuroprotection studies. […] The test agents were evaluated with the two assays during a 5 hour test period. […]"}, "hippocampal cultures [5]": {"system": "hippocampal cultures", "assay": "Neuroprotection from 30 mM ethanol, CFDA assay", "assay_type": "cell-based", "conditions": "Rattus norvegicus, read-out: NP from Ethanol CFDA EC50", "quoted_text": "Cell cultures: All compounds were screened with dissociated hippocampal cultures derived from embryonic day 18 rats as the primary test system. […] The hippocampal neurons were platted at low density (10,000 cell/well) in a 96-well format and maintained in serum-free medium consisting of Neurobasal Medium supplemented with B27 and GlutaMAX (Gibco).\nThe effective working concentration of ethanol that was empirically determined to produce toxicity in the hippocampal cultures was 30 mM.\nCarboxyfluorescein (CFDA) was used a vital stain for all neuroprotection studies. With the use of the CytoFluor fluorimeter, the CFDA assay was employed to assess the viability of neurons. […] Cultures were treated within the period of culture vulnerability for toxins relevant to HE: between days 11 and 22 after cell plating. The test agents were evaluated with the two assays during a 5 hour test period. For all assays, a 96-well format was used. […] Cultures were given a complete change of medium prior to the initiation of the treatment period.\nA compound of the disclosure was added to the hippocampal cultures for a five hour period. Compounds were tested from 10 nM to 100 μM. At the conclusion of the test period, the cultures were tested for the amount of neuronal viability by the CFDA method. […]"}, "hippocampal cultures [6]": {"system": "hippocampal cultures", "assay": "Neuroprotection from 300 μM ammonium acetate, CFDA assay", "assay_type": "cell-based", "conditions": "Rattus norvegicus, read-out: NP from AmAc CFDA EC50", "description": "as §1, §2"}, "hippocampal cultures [7]": {"system": "hippocampal cultures", "assay": "cells", "assay_type": "cell-based", "conditions": "Rattus norvegicus, 300 μM ammonium acetate, propidium iodide, read-out: NP from AmAc PI EC50", "description": "as §1, §2"}, "[8]": {"conditions": "CD1, mouse, in vivo, iv, 2 mg/kg"}, "[9]": {"conditions": "CD1, mouse, in vivo, po, 10 mg/kg"}, "[10]": {"conditions": "PO 10 mg/kg, CD1 mice, 0.25 hr, listed as KLS-13019, 10 mg/kg"}, "[11]": {"conditions": "PO 10 mg/kg, CD1 mice, 2 hr, listed as KLS-13019, 10 mg/kg"}},
  "note": "Several values for one entry are separate records, joined by “and”; a condition that tells them apart may be missing. Identical values can stand only once. Like-named read-outs stand apart in the source and are kept apart here.",
  "data": [
    {"compound": "C=C(C)[C@@H]1CCC(C)=C[C@H]1c1c(O)cc(CC2CN(C(C)=O)C2)cc1O", "note": "[Example 2, 1-(3-(3,5-dihydroxy-4-((1R,6R)-3-methyl-6-(prop-1-en-2-yl)cyclohex-2-enyl)benzyl)azetidin-1-yl)ethanone]", "values": [
      {"measurement": "EC50", "setting": "hippocampal cultures [1]", "value": 0.127, "unit": "µM"},
      {"measurement": "AUC(0-inf)", "setting": "[2]; [8]", "value": 0.44, "unit": "µg·h/mL"},
      {"measurement": "AUC(0-t)", "setting": "[2]; [8]", "value": 0.431, "unit": "µg·h/mL"},
      {"measurement": "MRT inf", "setting": "[2]; [8]", "value": 0.702, "unit": "h"},
      {"measurement": "Vd", "setting": "[2]; [8]", "value": 3.19, "unit": "L/kg"},
      {"measurement": "clearance", "setting": "[2]; [8]", "value": 4.55, "unit": "L/h/kg"},
      {"measurement": "half-life", "setting": "[2]; mouse, plasma, IV 2 mg/kg, CD1 mice, read-out: Terminal t1/2 (converted)", "value": 3.24, "unit": "h"},
      {"measurement": "Tmax", "setting": "in vivo; [9]", "value": 0.25, "unit": "h"},
      {"measurement": "half-life", "setting": "in vivo; [9]", "value": 5.31, "unit": "h"},
      {"measurement": "concentration at 0.25 h", "setting": "in vivo; CD1, mouse, in vivo, po, 10 mg/kg, PO 10 mg/kg, CD1 mice, 0.25 hr, read-out: Brain concentration, mean", "value": 0.469, "unit": "µg/mL"},
      {"measurement": "Kp at 0.25 h", "setting": "in vivo; CD1, mouse, in vivo, po, 10 mg/kg, PO 10 mg/kg, CD1 mice, 0.25 hr, read-out: Brain/Plasma (%), individual", "value": 0.801},
      {"measurement": "Kp at 0.25 h", "setting": "in vivo; CD1, mouse, in vivo, po, 10 mg/kg, PO 10 mg/kg, CD1 mice, 0.25 hr, read-out: Brain/Plasma (%), mean", "value": 0.821},
      {"measurement": "concentration at 0.25 h", "setting": "in vivo; CD1, mouse, in vivo, po, 10 mg/kg, PO 10 mg/kg, CD1 mice, 0.25 hr, read-out: CSF concentration, mean", "value": 0.00895, "unit": "µg/mL"},
      {"measurement": "Kp at 0.25 h", "setting": "in vivo; CD1, mouse, in vivo, po, 10 mg/kg, PO 10 mg/kg, CD1 mice, 0.25 hr, read-out: CSF/Plasma (%), individual", "value": 0.0179},
      {"measurement": "Kp at 0.25 h", "setting": "in vivo; CD1, mouse, in vivo, po, 10 mg/kg, PO 10 mg/kg, CD1 mice, 0.25 hr, read-out: CSF/Plasma (%), mean", "value": 0.0155},
      {"measurement": "concentration at 2 h", "setting": "in vivo; CD1, mouse, in vivo, po, 10 mg/kg, PO 10 mg/kg, CD1 mice, 2 hr, read-out: Brain concentration, mean", "value": 0.126, "unit": "µg/mL"},
      {"measurement": "Kp at 2 h", "setting": "in vivo; CD1, mouse, in vivo, po, 10 mg/kg, PO 10 mg/kg, CD1 mice, 2 hr, read-out: Brain/Plasma (%), individual", "value": 1.15},
      {"measurement": "Kp at 2 h", "setting": "in vivo; CD1, mouse, in vivo, po, 10 mg/kg, PO 10 mg/kg, CD1 mice, 2 hr, read-out: Brain/Plasma (%), mean", "value": 1.17},
      {"measurement": "concentration at 2 h", "setting": "in vivo; CD1, mouse, in vivo, po, 10 mg/kg, PO 10 mg/kg, CD1 mice, 2 hr, read-out: CSF concentration, mean", "value": 0.00265, "unit": "µg/mL"},
      {"measurement": "Kp at 2 h", "setting": "in vivo; CD1, mouse, in vivo, po, 10 mg/kg, PO 10 mg/kg, CD1 mice, 2 hr, read-out: CSF/Plasma (%), individual", "value": 0.0255},
      {"measurement": "Kp at 2 h", "setting": "in vivo; CD1, mouse, in vivo, po, 10 mg/kg, PO 10 mg/kg, CD1 mice, 2 hr, read-out: CSF/Plasma (%), mean", "value": 0.0291},
      {"measurement": "F", "setting": "in vivo; CD1, mouse, po, 10 mg/kg", "value": 67.1, "unit": "%"},
      {"measurement": "Tmax", "setting": "in vivo; CD1, mouse, po, 10 mg/kg", "value": 0.25, "unit": "h"},
      {"measurement": "half-life", "setting": "in vivo; CD1, mouse, po, 10 mg/kg", "value": 5.36, "unit": "h"},
      {"measurement": "Brain/CSF, mean", "setting": "in vivo; PO 10 mg/kg, CD1 mice, 0.25 hr", "value": 53.5},
      {"measurement": "Brain/CSF, individual", "setting": "in vivo; [10]", "value": "44.7 and 61.3 and 54.6"},
      {"measurement": "Brain/Plasma (%), individual", "setting": "in vivo; [10]", "value": "87.4% and 78.7%"},
      {"measurement": "CSF/Plasma (%), individual", "setting": "in vivo; [10]", "value": "1.42% and 1.44%"},
      {"measurement": "Brain/CSF, mean", "setting": "in vivo; PO 10 mg/kg, CD1 mice, 2 hr", "value": 43.7},
      {"measurement": "Brain/CSF, individual", "setting": "in vivo; [11]", "value": "45.0 and 60.3 and 25.9"},
      {"measurement": "Brain/Plasma (%), individual", "setting": "in vivo; [11]", "value": "136% and 101%"},
      {"measurement": "CSF concentration, individual", "setting": "in vivo; [11]", "value": "3.60 ng/mL and 3.00 ng/mL and 1.35 ng/mL"},
      {"measurement": "CSF/Plasma (%), individual", "setting": "in vivo; [11]", "value": "2.26% and 3.91%"},
      {"measurement": "Brain concentration, individual", "setting": "in vivo; PO 10 mg/kg, CD1 mice, 8 hr", "value": "BQL"},
      {"measurement": "Brain concentration, mean", "setting": "in vivo; PO 10 mg/kg, CD1 mice, 8 hr", "value": "BQL"},
      {"measurement": "Brain/Plasma (%), mean", "setting": "in vivo; PO 10 mg/kg, CD1 mice, 8 hr", "value": "BQL"},
      {"measurement": "CSF concentration, individual", "setting": "in vivo; PO 10 mg/kg, CD1 mice, 8 hr", "value": "BQL"},
      {"measurement": "CSF concentration, mean", "setting": "in vivo; PO 10 mg/kg, CD1 mice, 8 hr", "value": "BQL"},
      {"measurement": "CSF/Plasma (%), mean", "setting": "in vivo; PO 10 mg/kg, CD1 mice, 8 hr", "value": "BQL"},
      {"measurement": "EC50", "setting": "hippocampal cultures [3]", "value": 0.203, "unit": "µM"},
      {"measurement": "EC50", "setting": "hippocampal cultures [4]", "value": 0.046, "unit": "µM"},
      {"measurement": "EC50", "setting": "hippocampal cultures [5]", "value": 0.175, "unit": "µM"},
      {"measurement": "EC50", "setting": "hippocampal cultures [6]", "value": 0.061, "unit": "µM"},
      {"measurement": "EC50", "setting": "hippocampal cultures [7]", "value": 0.038, "unit": "µM"}
    ]},
    {"compound": "C=C(C)[C@@H]1CCC(C)=C[C@H]1c1c(O)cc(CC2CN(C(=O)OCC)C2)cc1O", "note": "[Example 3, ethyl 3-(3,5-dihydroxy-4-((1R,6R)-3-methyl-6-(prop-1-en-2-yl)cyclohex-2-enyl)benzyl)azetidine-1-carboxylate]", "values": [
      {"measurement": "EC50", "setting": "hippocampal cultures [1]", "value": 0.087, "unit": "µM"},
      {"measurement": "EC50", "setting": "hippocampal cultures [3]", "value": 0.061, "unit": "µM"},
      {"measurement": "EC50", "setting": "hippocampal cultures [4]", "value": 0.02, "unit": "µM"},
      {"measurement": "EC50", "setting": "hippocampal cultures [5]", "value": 0.03, "unit": "µM"},
      {"measurement": "EC50", "setting": "hippocampal cultures [6]", "value": 0.105, "unit": "µM"},
      {"measurement": "EC50", "setting": "hippocampal cultures [7]", "value": 0.05, "unit": "µM"}
    ]}
  ]
}
